Laboratory results as given in patent publication US11459323B2, “Monocyclic β-lactam compound for treating bacterial infection” (MEDSHINE DISCOVERY INC., priority 2018, dated 2022).
≈ marks a conversion by molar mass, not a printed value. Where two headings read alike, the source gives them in different places.

What was measured:
Test in all cases: MIC on clinically isolated bacteria
Type in all cases: cell-based
[1] = test system: Acinetobacter baumannii C270; conditions: Acinetobacter baumannii C270; read-out: Minimum Inhibitory Concentration (MIC)
Description: (§1) Twenty-five strains of clinically isolated Acinetobacter baumannii and twenty-seven strains of Pseudomonas aeruginosa were respectively selected and used to determine the minimum inhibitory concentration (MIC) of the compounds by micro-liquid dilution method according to the Institute of Clinical and Laboratory Standard (CLSI) requirements.

[2] = test system: Pseudomonas aeruginosa M1; conditions: read-out: MIC
Description: as §1

[3] = test system: Acinetobacter baumannii C402; conditions: Acinetobacter baumannii C402; read-out: Minimum Inhibitory Concentration (MIC)
Description: as §1

[4] = test system: Pseudomonas aeruginosa W35; conditions: read-out: MIC
Description: as §1

[5] = test system: Acinetobacter baumannii C395; conditions: Acinetobacter baumannii C395; read-out: Minimum Inhibitory Concentration (MIC)
Description: as §1

[6] = test system: Pseudomonas aeruginosa W21; conditions: read-out: MIC
Description: as §1

[7] = test system: Pseudomonas aeruginosa W9; conditions: read-out: MIC
Description: as §1

[8] = test system: Acinetobacter baumannii C427; conditions: Acinetobacter baumannii C427; read-out: Minimum Inhibitory Concentration (MIC)
Description: as §1

[9] = test system: Pseudomonas aeruginosa W6; conditions: read-out: MIC
Description: as §1

[10] = test system: Acinetobacter baumannii C251; conditions: Acinetobacter baumannii C251; read-out: Minimum Inhibitory Concentration (MIC)
Description: as §1

[11] = test system: Acinetobacter baumannii C312; conditions: Acinetobacter baumannii C312; read-out: Minimum Inhibitory Concentration (MIC)
Description: as §1

[12] = test system: Pseudomonas aeruginosa C763; conditions: read-out: MIC
Description: as §1

[13] = test system: Pseudomonas aeruginosa C754; conditions: read-out: MIC
Description: as §1

[14] = test system: Acinetobacter baumannii C319; conditions: Acinetobacter baumannii C319; read-out: Minimum Inhibitory Concentration (MIC)
Description: as §1

[15] = test system: Acinetobacter baumannii C332; conditions: Acinetobacter baumannii C332; read-out: Minimum Inhibitory Concentration (MIC)
Description: as §1

[16] = test system: Acinetobacter baumannii C394; conditions: Acinetobacter baumannii C394; read-out: Minimum Inhibitory Concentration (MIC)
Description: as §1

[17] = test system: Acinetobacter baumannii C241; conditions: Acinetobacter baumannii C241; read-out: Minimum Inhibitory Concentration (MIC)
Description: as §1

[18] = test system: Pseudomonas aeruginosa W42; conditions: read-out: MIC
Description: as §1

[19] = test system: Acinetobacter baumannii C283; conditions: Acinetobacter baumannii C283; read-out: Minimum Inhibitory Concentration (MIC)
Description: as §1

[20] = test system: Acinetobacter baumannii C279; conditions: Acinetobacter baumannii C279; read-out: Minimum Inhibitory Concentration (MIC)
Description: as §1

[21] = test system: Acinetobacter baumannii C328; conditions: Acinetobacter baumannii C328; read-out: Minimum Inhibitory Concentration (MIC)
Description: as §1

[22] = test system: Acinetobacter baumannii C403; conditions: Acinetobacter baumannii C403; read-out: Minimum Inhibitory Concentration (MIC)
Description: as §1

[23] = test system: Acinetobacter baumannii C330; conditions: Acinetobacter baumannii C330; read-out: Minimum Inhibitory Concentration (MIC)
Description: as §1

[24] = test system: Pseudomonas aeruginosa W13; conditions: read-out: MIC
Description: as §1

[25] = test system: Acinetobacter baumannii C401; conditions: Acinetobacter baumannii C401; read-out: Minimum Inhibitory Concentration (MIC)
Description: as §1

[26] = test system: Pseudomonas aeruginosa W1; conditions: read-out: MIC
Description: as §1

[27] = test system: Pseudomonas aeruginosa C762
Description: as §1

[28] = test system: Pseudomonas aeruginosa W24; conditions: read-out: MIC
Description: as §1

[29] = test system: Pseudomonas aeruginosa W19; conditions: read-out: MIC
Description: as §1

[30] = test system: Acinetobacter baumannii C361; conditions: Acinetobacter baumannii C361; read-out: Minimum Inhibitory Concentration (MIC)
Description: as §1

[31] = test system: Pseudomonas aeruginosa W46; conditions: read-out: MIC
Description: as §1

[32] = test system: Pseudomonas aeruginosa W28; conditions: read-out: MIC
Description: as §1

[33] = test system: Pseudomonas aeruginosa C755; conditions: read-out: MIC
Description: as §1

[34] = test system: Pseudomonas aeruginosa C761; conditions: read-out: MIC
Description: as §1

[35] = test system: Acinetobacter baumannii C313; conditions: Acinetobacter baumannii C313; read-out: Minimum Inhibitory Concentration (MIC)
Description: as §1

[36] = test system: Acinetobacter baumannii C333; conditions: Acinetobacter baumannii C333; read-out: Minimum Inhibitory Concentration (MIC)
Description: as §1

[37] = test system: Acinetobacter baumannii C315; conditions: Acinetobacter baumannii C315; read-out: Minimum Inhibitory Concentration (MIC)
Description: as §1

[38] = test system: Acinetobacter baumannii C390; conditions: Acinetobacter baumannii C390; read-out: Minimum Inhibitory Concentration (MIC)
Description: as §1

[39] = test system: Pseudomonas aeruginosa W4; conditions: read-out: MIC
Description: as §1

[40] = test system: Pseudomonas aeruginosa W27; conditions: read-out: MIC
Description: as §1

| SMILES | MIC [1] [mg/L] | MIC [2] [mg/L] | MIC [3] [mg/L] | MIC [4] [mg/L] | MIC [6] [mg/L] | MIC [7] [mg/L] | MIC [8] [mg/L] | MIC [9] [mg/L] | MIC [10] [mg/L] | MIC [11] [mg/L] | MIC [12] [mg/L] | MIC [13] [mg/L] | MIC [14] [mg/L] | MIC [15] [mg/L] | MIC [16] [mg/L] | MIC [17] [mg/L] | MIC [18] [mg/L] | MIC [19] [mg/L] | MIC [20] [mg/L] | MIC [22] [mg/L] | further results |
| --- | --- | --- | --- | --- | --- | --- | --- | --- | --- | --- | --- | --- | --- | --- | --- | --- | --- | --- | --- | --- | --- |
| C[C@H]1[C@H](NC(=O)/C(=N\OC(C)(C)C(=O)O)c2csc(N)n2)C(=O)N1S(=O)(=O)O [Aztreonam, reference compound] | 64 (≈ 147 µM) | 8 (≈ 18.4 µM) | 32 (≈ 73.5 µM) | 2 (≈ 4.59 µM) | 16 (≈ 36.7 µM) | 32 (≈ 73.5 µM) | 64 (≈ 147 µM) | 32 (≈ 73.5 µM) | 32 (≈ 73.5 µM) | 64 (≈ 147 µM) | 32 (≈ 73.5 µM) | 4 (≈ 9.19 µM) | 64 (≈ 147 µM) | 64 (≈ 147 µM) | 64 (≈ 147 µM) | 128 (≈ 294 µM) | 16 (≈ 36.7 µM) | 64 (≈ 147 µM) | 64 (≈ 147 µM) | 64 (≈ 147 µM) | MIC [5]: 32 mg/L (≈ 73.5 µM); MIC [21]: 64 mg/L (≈ 147 µM); MIC [23]: 64 mg/L (≈ 147 µM); MIC [24]: 16 mg/L (≈ 36.7 µM); MIC [25]: 32 mg/L (≈ 73.5 µM); MIC [26]: 32 mg/L (≈ 73.5 µM); MIC [27]: 128 mg/L (≈ 294 µM); MIC [28]: 32 mg/L (≈ 73.5 µM); MIC [29]: 16 mg/L (≈ 36.7 µM); MIC [30]: 32 mg/L (≈ 73.5 µM); MIC [31]: 16 mg/L (≈ 36.7 µM); MIC [32]: 32 mg/L (≈ 73.5 µM); MIC [33]: 4 mg/L (≈ 9.19 µM); MIC [34]: 8 mg/L (≈ 18.4 µM); MIC [35]: 64 mg/L (≈ 147 µM); MIC [36]: 64 mg/L (≈ 147 µM); MIC [37]: 64 mg/L (≈ 147 µM); MIC [38]: 64 mg/L (≈ 147 µM); MIC [39]: 4 mg/L (≈ 9.19 µM); MIC [40]: 32 mg/L (≈ 73.5 µM) |
| CC1(C)[C@H](NC(=O)/C(=N\O[C@@H](COc2ccc3c(c2)CN(C(=N)N[C@@H]2CCCNC2)C3)C(=O)O)c2csc(N)n2)C(=O)N1OS(=O)(=O)O [Compound 41] | 2 (≈ 2.82 µM) | 1 (≈ 1.41 µM) | 2 (≈ 2.82 µM) | 0.5 (≈ 0.704 µM) | 0.5 (≈ 0.704 µM) | 4 (≈ 5.64 µM) | 4 (≈ 5.64 µM) | 4 (≈ 5.64 µM) | 8 (≈ 11.3 µM) | 2 (≈ 2.82 µM) | 4 (≈ 5.64 µM) | 0.5 (≈ 0.704 µM) | 2 (≈ 2.82 µM) | 2 (≈ 2.82 µM) | 2 (≈ 2.82 µM) | 4 (≈ 5.64 µM) | 0.5 (≈ 0.704 µM) | 2 (≈ 2.82 µM) | 2 (≈ 2.82 µM) | 4 (≈ 5.64 µM) | MIC [5]: 2 mg/L (≈ 2.82 µM); MIC [21]: 2 mg/L (≈ 2.82 µM); MIC [23]: 2 mg/L (≈ 2.82 µM); MIC [24]: 0.5 mg/L (≈ 0.704 µM); MIC [25]: 1 mg/L (≈ 1.41 µM); MIC [26]: 2 mg/L (≈ 2.82 µM); MIC ([27]; read-out: MIC): 8 mg/L (≈ 11.3 µM); MIC [28]: 2 mg/L (≈ 2.82 µM); MIC [29]: 1 mg/L (≈ 1.41 µM); MIC [30]: 1 mg/L (≈ 1.41 µM); MIC [31]: 2 mg/L (≈ 2.82 µM); MIC [32]: 4 mg/L (≈ 5.64 µM); MIC [33]: 0.5 mg/L (≈ 0.704 µM); MIC [34]: 1 mg/L (≈ 1.41 µM); MIC [35]: 2 mg/L (≈ 2.82 µM); MIC [36]: 2 mg/L (≈ 2.82 µM); MIC [37]: 2 mg/L (≈ 2.82 µM); MIC [38]: 2 mg/L (≈ 2.82 µM); MIC [39]: 0.5 mg/L (≈ 0.704 µM); MIC [40]: 4 mg/L (≈ 5.64 µM) |
| C[C@@H](O)[C@H]1C(=O)N2C(C(=O)O)=C(S[C@@H]3CN[C@H](C(=O)N(C)C)C3)[C@H](C)[C@H]12 [Meropenem, reference compound] | 64 (≈ 167 µM) | 4 (≈ 10.4 µM) | 64 (≈ 167 µM) | 16 (≈ 41.7 µM) | 16 (≈ 41.7 µM) | 16 (≈ 41.7 µM) | 64 (≈ 167 µM) | 32 (≈ 83.4 µM) | 64 (≈ 167 µM) | 64 (≈ 167 µM) | 32 (≈ 83.4 µM) | < 0.25 | 64 (≈ 167 µM) | 64 (≈ 167 µM) | 64 (≈ 167 µM) | 64 (≈ 167 µM) | 1 (≈ 2.61 µM) | 64 (≈ 167 µM) | 64 (≈ 167 µM) | 64 (≈ 167 µM) | MIC [23]: 64 mg/L (≈ 167 µM); MIC [24]: 16 mg/L (≈ 41.7 µM); MIC [25]: 128 mg/L (≈ 334 µM); MIC [26]: 4 mg/L (≈ 10.4 µM); MIC ([27]; read-out: MIC): 32 mg/L (≈ 83.4 µM); MIC [28]: 16 mg/L (≈ 41.7 µM); MIC [29]: 1 mg/L (≈ 2.61 µM); MIC [30]: 64 mg/L (≈ 167 µM); MIC [31]: 2 mg/L (≈ 5.22 µM); MIC [32]: 32 mg/L (≈ 83.4 µM); MIC [33]: < 0.25 mg/L; MIC [34]: < 0.25 mg/L; MIC [35]: 64 mg/L (≈ 167 µM); MIC [36]: 64 mg/L (≈ 167 µM); MIC [37]: 64 mg/L (≈ 167 µM); MIC [38]: 64 mg/L (≈ 167 µM); MIC [39]: 2 mg/L (≈ 5.22 µM); MIC [40]: 32 mg/L (≈ 83.4 µM) |
